Assay results published in ChEMBL document CHEMBL1201862, “PubChem BioAssay data set” (2004).
The source made the active and inactive calls.

Experiments:
Protein Wnt-3a = Protein Wnt-3a (Mus musculus, UniProt P27467); assay: Wnt3a-driven reporter signaling inhibition, dose response, selectivity assay for Gli-SUFU antagonist project, Wnt-LIGHT cells, luminescence (AID 651570); format: functional; conditions: read-out: IC50_Mean;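 further: Wnt-LIGHT reporter cells stimulated with conditioned medium from Wnt3a-producing cells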
Sequence of Protein Wnt-3a (P27467 whole entry): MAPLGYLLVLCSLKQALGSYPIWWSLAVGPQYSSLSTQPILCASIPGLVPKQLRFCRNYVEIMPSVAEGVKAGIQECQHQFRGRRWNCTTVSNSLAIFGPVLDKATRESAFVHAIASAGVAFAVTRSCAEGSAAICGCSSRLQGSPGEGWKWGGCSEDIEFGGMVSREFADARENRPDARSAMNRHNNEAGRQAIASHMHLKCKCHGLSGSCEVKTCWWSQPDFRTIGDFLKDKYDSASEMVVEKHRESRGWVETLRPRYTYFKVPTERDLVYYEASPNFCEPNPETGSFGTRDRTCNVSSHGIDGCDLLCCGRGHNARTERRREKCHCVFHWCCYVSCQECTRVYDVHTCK

[1] = molecular target: T1, Rac GTPase-activating protein 1 (Homo sapiens, UniProt Q9H0H5); assay: MgcRacGAP GTPase-activating activity inhibitors, confirmation, biochemical, ADP Hunter fluorescence, primary and confirmatory (AID 624330); format: functional
T1 sequence (Q9H0H5 whole entry): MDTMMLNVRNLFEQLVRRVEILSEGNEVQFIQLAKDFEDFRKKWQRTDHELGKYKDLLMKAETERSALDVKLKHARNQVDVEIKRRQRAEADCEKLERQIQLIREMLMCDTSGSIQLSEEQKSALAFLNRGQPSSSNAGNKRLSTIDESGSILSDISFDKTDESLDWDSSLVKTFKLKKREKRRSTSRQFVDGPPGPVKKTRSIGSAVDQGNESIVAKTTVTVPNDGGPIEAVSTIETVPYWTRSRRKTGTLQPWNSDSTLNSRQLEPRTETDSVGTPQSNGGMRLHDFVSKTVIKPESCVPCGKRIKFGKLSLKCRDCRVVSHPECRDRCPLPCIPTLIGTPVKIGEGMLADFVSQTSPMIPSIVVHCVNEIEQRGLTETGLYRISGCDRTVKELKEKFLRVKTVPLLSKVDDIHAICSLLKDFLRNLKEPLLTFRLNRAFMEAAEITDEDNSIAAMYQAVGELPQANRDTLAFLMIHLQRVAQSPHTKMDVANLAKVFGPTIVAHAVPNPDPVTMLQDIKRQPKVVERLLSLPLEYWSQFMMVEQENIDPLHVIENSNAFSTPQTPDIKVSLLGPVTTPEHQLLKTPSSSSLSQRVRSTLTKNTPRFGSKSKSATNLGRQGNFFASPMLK

[2] = Luminescence Cell-Based Dose Confirmation HTS to Identify Activators of 5'UTR Stem-Loop Driven Alpha-Synuclein mRNA Translation in H4 Neuroglioblastoma Cells. [Related pubchem assays: 1829 (Project Summary), 1814 (Primary HTS)]; format: functional
[3] = Luminescence Cell-Based Dose Response HTS to Identify Activators of Luciferase Translation or Activity in H4 […] Cells. [Related pubchem assays: 1829 (Project Summary), 1814 (Primary HTS)]; format: functional
H4 = assay: Luminescence Cell-Based Dose Response HTS to Identify Activators of 5'UTR Stem-Loop Driven Prion Protein mRNA Translation in H4 Neuroglioblastoma Cells. [Related pubchem assays: 1829 (Project Summary), 1814 (Primary HTS)]; format: functional; conditions: Homo sapiens
[4] = molecular target: T2, Low molecular weight phosphotyrosine protein phosphatase (Homo sapiens, UniProt P24666); format: functional; conditions: read-out: IC50_Mean
T2 sequence (P24666 whole entry): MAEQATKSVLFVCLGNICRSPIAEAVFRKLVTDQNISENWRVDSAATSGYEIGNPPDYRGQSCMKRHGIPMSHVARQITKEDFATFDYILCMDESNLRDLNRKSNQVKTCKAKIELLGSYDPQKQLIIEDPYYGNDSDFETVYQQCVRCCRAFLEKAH

[5] = molecular target: T2, Low molecular weight phosphotyrosine protein phosphatase; format: functional; conditions: read-out: IC50_Mean; remark: listed apart in the source
[6] = molecular target: T3, DNA repair and recombination protein RAD54-like (Homo sapiens, UniProt Q92698); assay: inhibitors of human RAD54 branch migration, confirmation, biochemical, fluorescence, cherry-picked samples, dose series (AID 651657); format: functional
T3 sequence (Q92698 whole entry): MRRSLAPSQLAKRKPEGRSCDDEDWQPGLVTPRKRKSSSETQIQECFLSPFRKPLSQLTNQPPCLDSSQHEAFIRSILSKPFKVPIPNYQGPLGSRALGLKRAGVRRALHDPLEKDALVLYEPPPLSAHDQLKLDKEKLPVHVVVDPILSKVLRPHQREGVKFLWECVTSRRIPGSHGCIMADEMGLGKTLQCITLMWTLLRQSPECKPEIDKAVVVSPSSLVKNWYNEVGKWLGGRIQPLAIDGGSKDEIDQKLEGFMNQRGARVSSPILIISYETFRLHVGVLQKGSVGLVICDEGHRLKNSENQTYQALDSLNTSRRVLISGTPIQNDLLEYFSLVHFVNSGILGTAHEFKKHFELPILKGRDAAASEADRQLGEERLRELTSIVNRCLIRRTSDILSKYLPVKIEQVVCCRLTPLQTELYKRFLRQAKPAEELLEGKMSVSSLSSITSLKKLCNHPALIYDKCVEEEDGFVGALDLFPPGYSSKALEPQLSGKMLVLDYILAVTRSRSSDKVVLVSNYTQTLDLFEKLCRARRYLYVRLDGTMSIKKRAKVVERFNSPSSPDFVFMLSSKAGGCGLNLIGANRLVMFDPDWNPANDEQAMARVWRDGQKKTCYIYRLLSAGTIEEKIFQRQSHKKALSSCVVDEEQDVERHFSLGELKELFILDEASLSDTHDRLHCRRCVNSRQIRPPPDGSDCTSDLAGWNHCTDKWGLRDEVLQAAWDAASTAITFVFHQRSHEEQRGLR

[7] = molecular target: Hepatocyte nuclear factor 4-alpha (Homo sapiens, UniProt P41235); format: functional, cell-based;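 further: biochemical luminescence-based dose-response counterscreen measuring inhibition of HNF4 dimerization, run alongside a screen for blockers of ABHD5–perilipin-5 interaction; split luciferase complementation of HNF4 fusion proteins in cell lysate measuring dimerization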
Sequence of Hepatocyte nuclear factor 4-alpha (P41235 whole entry, the tested form may be a part): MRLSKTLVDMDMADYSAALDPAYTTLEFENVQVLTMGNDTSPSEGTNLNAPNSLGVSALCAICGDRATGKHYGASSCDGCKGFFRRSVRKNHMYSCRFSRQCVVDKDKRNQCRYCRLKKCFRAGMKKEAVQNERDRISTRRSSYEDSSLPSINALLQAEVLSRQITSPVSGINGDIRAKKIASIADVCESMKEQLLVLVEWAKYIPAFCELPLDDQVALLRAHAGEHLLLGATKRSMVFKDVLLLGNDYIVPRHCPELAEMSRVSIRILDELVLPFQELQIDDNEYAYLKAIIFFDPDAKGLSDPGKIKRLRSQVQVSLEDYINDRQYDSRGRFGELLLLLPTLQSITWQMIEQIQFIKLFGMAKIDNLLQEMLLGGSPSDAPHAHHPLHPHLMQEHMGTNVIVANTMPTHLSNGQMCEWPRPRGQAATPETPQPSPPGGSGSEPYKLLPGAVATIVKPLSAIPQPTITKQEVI

[8] = molecular target: Mitochondrial peptide methionine sulfoxide reductase (Bos taurus, UniProt P54149); assay: Absorbance-based biochemical high throughput dose response assay for activators of Methionine sulfoxide reductase A (MsrA).; format: functional
Sequence of Mitochondrial peptide methionine sulfoxide reductase (P54149 whole entry): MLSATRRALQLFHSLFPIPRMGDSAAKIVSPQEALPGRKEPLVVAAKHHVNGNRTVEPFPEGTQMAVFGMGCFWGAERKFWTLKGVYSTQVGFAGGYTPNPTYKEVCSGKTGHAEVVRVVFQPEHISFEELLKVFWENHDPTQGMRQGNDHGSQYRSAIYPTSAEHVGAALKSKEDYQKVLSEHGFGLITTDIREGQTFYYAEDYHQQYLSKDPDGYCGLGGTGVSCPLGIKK

[9] = molecular target: Adenosylmethionine-8-amino-7-oxononanoate aminotransferase (Mycobacterium tuberculosis, UniProt P9WQ81); assay: Mycobacterium tuberculosis BioA enzyme inhibitor Measured in Biochemical System Using Plate Reader - 2163-02_Inhibitor_Dose_CherryPick_Activity.; format: functional, Mycobacterium tuberculosis UT205
Sequence of Adenosylmethionine-8-amino-7-oxononanoate aminotransferase (P9WQ81 whole entry): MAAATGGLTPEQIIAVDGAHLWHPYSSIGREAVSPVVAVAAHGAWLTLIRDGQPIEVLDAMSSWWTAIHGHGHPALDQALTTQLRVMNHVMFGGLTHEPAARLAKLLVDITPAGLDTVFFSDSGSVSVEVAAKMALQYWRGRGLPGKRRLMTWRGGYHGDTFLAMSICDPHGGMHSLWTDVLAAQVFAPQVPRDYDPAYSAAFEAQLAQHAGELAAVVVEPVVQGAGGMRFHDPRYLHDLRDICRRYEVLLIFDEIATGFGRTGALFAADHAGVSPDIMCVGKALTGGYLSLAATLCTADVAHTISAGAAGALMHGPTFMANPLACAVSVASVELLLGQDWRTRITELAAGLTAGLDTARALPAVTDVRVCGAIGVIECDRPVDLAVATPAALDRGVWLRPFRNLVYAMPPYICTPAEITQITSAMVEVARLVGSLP

[10] = molecular target: T4, Sentrin-specific protease 8 (Homo sapiens, UniProt Q96LD8); assay: SENP8 protease inhibitors, SAR follow-up, biochemical, luminescence (AID 504501); format: functional
T4 sequence (Q96LD8 whole entry): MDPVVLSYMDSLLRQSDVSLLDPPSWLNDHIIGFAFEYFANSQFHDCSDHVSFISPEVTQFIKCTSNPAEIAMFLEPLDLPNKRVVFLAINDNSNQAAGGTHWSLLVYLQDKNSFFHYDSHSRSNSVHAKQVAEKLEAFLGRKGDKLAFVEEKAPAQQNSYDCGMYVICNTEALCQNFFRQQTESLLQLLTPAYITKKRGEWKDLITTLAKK

Caspase-3 = molecular target: T5, Caspase-3 (Homo sapiens, UniProt P42574); assay: SAR Analysis of small molecule inhibitors of Sentrin-specific proteases (SENPs) using a Caspase-3 Selectivity assay. [Related pubchem assays (depositor defined):AID2540, AID2599, AID434973, AID489001]; format: functional
T5 sequence (P42574 whole entry): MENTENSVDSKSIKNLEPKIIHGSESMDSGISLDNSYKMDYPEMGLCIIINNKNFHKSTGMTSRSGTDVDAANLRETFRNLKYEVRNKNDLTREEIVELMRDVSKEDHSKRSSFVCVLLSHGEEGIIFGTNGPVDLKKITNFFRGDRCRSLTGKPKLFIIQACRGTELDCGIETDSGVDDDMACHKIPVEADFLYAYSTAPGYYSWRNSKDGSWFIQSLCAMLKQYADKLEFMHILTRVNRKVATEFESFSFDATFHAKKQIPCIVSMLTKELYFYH

[11] = molecular target: T6, Sentrin-specific protease 6 (Homo sapiens, UniProt Q9GZR1); assay: SAR Analysis of small molecule inhibitors of Sentrin-specific protease 6 (SENP6) using a Luminescent assay. [Related pubchem assays (depositor defined):AID2582, AID2599]; format: functional
T6 sequence (Q9GZR1 whole entry): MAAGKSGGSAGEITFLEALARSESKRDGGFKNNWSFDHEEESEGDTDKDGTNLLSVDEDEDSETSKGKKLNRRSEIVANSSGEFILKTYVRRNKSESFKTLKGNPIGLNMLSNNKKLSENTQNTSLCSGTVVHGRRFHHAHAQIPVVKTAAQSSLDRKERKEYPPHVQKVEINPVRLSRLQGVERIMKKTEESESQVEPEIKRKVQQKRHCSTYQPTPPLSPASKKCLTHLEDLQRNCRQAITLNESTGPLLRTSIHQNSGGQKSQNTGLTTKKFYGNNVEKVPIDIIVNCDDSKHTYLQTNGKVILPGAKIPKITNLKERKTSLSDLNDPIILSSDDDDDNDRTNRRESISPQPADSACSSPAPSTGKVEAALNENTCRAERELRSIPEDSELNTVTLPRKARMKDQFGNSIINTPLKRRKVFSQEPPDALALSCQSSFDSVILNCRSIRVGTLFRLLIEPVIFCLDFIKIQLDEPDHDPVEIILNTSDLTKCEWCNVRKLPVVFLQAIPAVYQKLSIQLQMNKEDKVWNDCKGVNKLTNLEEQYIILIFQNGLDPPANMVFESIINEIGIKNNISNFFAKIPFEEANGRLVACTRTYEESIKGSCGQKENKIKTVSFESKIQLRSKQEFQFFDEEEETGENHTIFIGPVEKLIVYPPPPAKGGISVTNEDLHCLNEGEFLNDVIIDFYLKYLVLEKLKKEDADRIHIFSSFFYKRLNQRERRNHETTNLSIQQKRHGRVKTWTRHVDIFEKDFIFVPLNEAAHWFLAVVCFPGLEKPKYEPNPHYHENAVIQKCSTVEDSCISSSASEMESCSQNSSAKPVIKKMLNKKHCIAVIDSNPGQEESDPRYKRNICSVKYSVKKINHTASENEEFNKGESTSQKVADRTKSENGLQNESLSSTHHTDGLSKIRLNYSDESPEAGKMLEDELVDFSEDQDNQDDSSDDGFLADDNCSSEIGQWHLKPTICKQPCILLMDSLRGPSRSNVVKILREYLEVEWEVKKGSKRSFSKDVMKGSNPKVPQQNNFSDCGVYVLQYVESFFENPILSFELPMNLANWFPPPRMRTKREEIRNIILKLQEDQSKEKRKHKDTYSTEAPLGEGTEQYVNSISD

[12] = molecular target: T7, Sentrin-specific protease 7 (Homo sapiens, UniProt Q9BQF6); assay: SENP7 protease inhibitors, SAR follow-up, biochemical, luminescence (AID 504497); format: functional
T7 sequence (Q9BQF6 whole entry): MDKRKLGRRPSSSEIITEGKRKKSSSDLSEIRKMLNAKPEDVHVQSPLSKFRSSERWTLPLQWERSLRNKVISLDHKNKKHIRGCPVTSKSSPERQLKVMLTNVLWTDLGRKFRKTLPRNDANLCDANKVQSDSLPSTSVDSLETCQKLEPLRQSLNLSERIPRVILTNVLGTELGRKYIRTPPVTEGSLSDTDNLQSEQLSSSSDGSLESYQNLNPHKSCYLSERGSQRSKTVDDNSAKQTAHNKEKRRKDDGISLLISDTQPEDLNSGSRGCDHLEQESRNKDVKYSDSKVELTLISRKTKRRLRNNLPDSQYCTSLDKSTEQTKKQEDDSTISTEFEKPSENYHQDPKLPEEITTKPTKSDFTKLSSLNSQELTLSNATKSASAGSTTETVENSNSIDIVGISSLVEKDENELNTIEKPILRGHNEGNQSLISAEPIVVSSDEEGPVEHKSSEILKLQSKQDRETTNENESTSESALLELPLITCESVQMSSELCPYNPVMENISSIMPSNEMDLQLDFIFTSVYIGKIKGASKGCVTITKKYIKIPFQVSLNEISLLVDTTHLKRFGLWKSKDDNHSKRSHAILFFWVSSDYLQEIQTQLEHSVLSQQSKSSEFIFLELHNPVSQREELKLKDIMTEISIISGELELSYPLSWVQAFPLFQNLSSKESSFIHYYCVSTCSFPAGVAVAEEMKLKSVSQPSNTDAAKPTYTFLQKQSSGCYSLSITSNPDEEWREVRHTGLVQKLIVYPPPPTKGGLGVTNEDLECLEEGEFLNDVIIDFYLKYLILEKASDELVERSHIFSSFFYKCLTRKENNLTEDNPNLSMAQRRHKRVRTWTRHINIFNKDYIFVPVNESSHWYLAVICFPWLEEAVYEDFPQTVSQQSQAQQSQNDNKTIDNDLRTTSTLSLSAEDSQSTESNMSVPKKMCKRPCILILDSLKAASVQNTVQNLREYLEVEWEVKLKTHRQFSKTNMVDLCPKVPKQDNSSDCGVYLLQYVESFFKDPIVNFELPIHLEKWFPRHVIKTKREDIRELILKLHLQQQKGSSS

[13] = molecular target: Induced myeloid leukemia cell differentiation protein Mcl-1 (Homo sapiens, UniProt Q07820); format: functional
Sequence of Induced myeloid leukemia cell differentiation protein Mcl-1 (Q07820 whole entry, the tested form may be a part): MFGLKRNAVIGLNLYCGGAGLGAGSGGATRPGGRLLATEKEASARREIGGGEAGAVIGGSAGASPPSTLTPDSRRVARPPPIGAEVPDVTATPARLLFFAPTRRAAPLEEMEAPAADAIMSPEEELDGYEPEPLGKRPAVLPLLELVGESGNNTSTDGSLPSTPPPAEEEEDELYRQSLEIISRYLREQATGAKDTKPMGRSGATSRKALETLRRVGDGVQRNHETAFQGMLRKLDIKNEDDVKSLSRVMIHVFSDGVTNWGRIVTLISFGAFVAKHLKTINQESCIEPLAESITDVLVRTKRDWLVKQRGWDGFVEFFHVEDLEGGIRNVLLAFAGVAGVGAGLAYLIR

[14] = ARNT/TACC3 interaction disruptors, potency, confirmation, biochemical, AlphaScreen, cherry-picked samples (AID 651703); format: functional, Homo sapiens;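 further: His-tagged ARNT PAS-B domain paired with GST-TACC3 E629A dimer coactivator fragment; potency of inhibitors that break up the complex and lower AlphaScreen signal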

In the case of `Cc1nc2ncccn2c1-c1csc(Nc2ccc(O)cc2)n1`, the IC50 (Protein Wnt-3a) is reported as 48.9 µM (inactive) and the IC50 [1] is reported as 14.3 µM (active).
For `Cc1ccc(-c2nc(NCCN3CCOCC3)c3ccccc3n2)cc1`, the EC50 [2] was 56.3 µM (active), the EC50 [3] was 21.1 µM (active) and the EC50 (H4) was 16.9 µM (active). For the same compound, the IC50 [4] was 30.7 µM (inactive), the IC50 [5] was 16 µM (active) and the AC50 [6] was 24.8 µM (active).
For `CC(=O)c1c(C)[nH]c(C(=O)OCC(=O)Nc2cccc(S(=O)(=O)N3CCCC3)c2)c1C`, the IC50 (Protein Wnt-3a) was 5.02 µM (active).
In the case of `CCCCCNC(=O)C(c1cccc2ccccc12)n1c(=O)c(-c2ccco2)nc2ccccc21` (stereo not given), the IC50 [7] is reported as 2.83 µM (active).
In the case of `CC1(C(=O)Nc2ccccc2)CCN1C(=O)Cc1ccc(-c2ccccc2)cc1` (stereo not given), the EC50 [8] is reported as > 104 µM (inactive).
For `CC(C)(C)c1cc(C(=O)Nc2cccnc2)cc(C(=O)Nc2cccnc2)c1`, the AC50 [9] was 1.28 µM (active).
For `Cc1cc(C(F)F)nn1CC(=O)Nc1sc2c(c1C#N)CCC2`, the IC50 [10] was > 99 µM (inactive), the IC50 (Caspase-3) was > 99 µM (inactive) and the IC50 [11] was > 99 µM (inactive). The IC50 [12] was > 99 µM (inactive).
For `CS(=O)(=O)c1ccc(C(=O)NCCN2C(=O)S/C(=C\c3cccnc3)C2=O)cc1[N+](=O)[O-]`, the IC50 [13] was 2.17 µM (active) and the IC50 [7] was 5.89 µM (active).
With `CCCCc1ccc2nc(NC(=O)C3CCCCC3)sc2c1` the IC50 [10] was > 99 µM (inactive), the IC50 (Caspase-3) was > 99 µM (inactive) and the IC50 [11] was > 99 µM (inactive). For the same compound, the IC50 [12] was > 99 µM (inactive).
For `CC(=O)N1CN(Cc2ccccn2)Cc2c1sc1c2CCCC1`, the AC50 [14] was 87.9 µM (active).
In the case of `O=C(NCc1ccccn1)c1c(-c2ccccc2)sc2ccccc12`, the AC50 [14] is reported as 121 µM (active).
In the case of `COc1cccc(NC(=O)CCC2CCN(C(=O)c3ccc(C(C)=O)s3)CC2)c1`, the AC50 [9] is reported as 0.508 µM (active).
